Results taken from ChEMBL document CHEMBL4732115, “Discovery of novel cell-penetrating and tumor-targeting peptide-drug conjugate (PDC) for programmable delivery of paclitaxel and cancer treatment” (Eur J Med Chem, 2021).
Active and inactive are the calls of the source. The rule behind the calls is not given here. Peptide text beside a SMILES is read from it. * marks the point of attachment. X1 = CC(=O)O[C@H]1C(=O)[C@@]2(C)[C@H]([C@H](OC(=O)c3ccccc3)[C@]3(O)C[C@H](OC(=O)[C@H](OC(=O)OCCS*)[C@@H](NC(=O)c4ccccc4)c4ccccc4)C(C)=C1C3(C)C)[C@]1(OC(C)=O)CO[C@@H]1C[C@@H]2O; X2 = NCCCC[C@H](N*)C(=O)NC(=O)C1CCC(=O)N1

Columns and labels:
MCF7 [1] = assay: Cytotoxicity against human MCF7 cells assessed as reduction in cell viability measured after 48 hrs by MTT assay; format: functional, cell-based; conditions: MCF7, 48 h
[2] = Neurotoxicity in BALB/c mouse assessed as change in vanillylmandelic acid level at 12 umol/kg, ip administered every two days for 14 days measured post last dose by LC-MS analysis; format: toxicity, organism-based; conditions: in vivo, 336 h, dose 12 µmol/kg, time 14 day
[3] = Drug uptake in human MCF7 cells at 20 nM measured after 4 hrs in presence of MMP inhibitor ilomastat and LHRH by LC-MS analysis; format: ADME, cell-based; conditions: mcf7, 4 h, 0.02 µM
[4] = Neurotoxicity in BALB/c mouse assessed as change in histidine level at 12 umol/kg, ip administered every two days for 14 days measured post last dose by LC-MS analysis; format: toxicity, organism-based; conditions: in vivo, 336 h, dose 12 µmol/kg, time 14 day
MCF7 [5] = assay: Induction of apoptosis in human MCF7 cells at IC50 measured after 4 hrs by Annexin-V FITC/propidium iodide staining based flow cytometry; format: functional, cell-based
[6] = Neurotoxicity in BALB/c mouse assessed as change in glutamine level at 12 umol/kg, ip administered every two days for 14 days measured post last dose by LC-MS analysis; format: toxicity, organism-based; conditions: in vivo, 336 h, dose 12 µmol/kg, time 14 day
MCF7 [7] = assay: Cytotoxicity against human MCF7 cells assessed as reduction in cell viability measured after 48 hrs in presence of MMP inhibitor ilomastat by MTT assay; format: functional, cell-based
[8] = Drug conversion in heart of BALB/c nude mouse xenografted with human MCF7 cells assessed as T2-PTX formation at 8 to 12 umol/kg, ip measured after 2 hrs by LC-MS analysis; format: ADME, organism-based; conditions: in vivo, dose 8-12 µmol/kg
[9] = Neurotoxicity in BALB/c mouse assessed as change in histamine level at 12 umol/kg, ip administered every two days for 14 days measured post last dose by LC-MS analysis; format: toxicity, organism-based; conditions: in vivo, 336 h, dose 12 µmol/kg, time 14 day
HEK293 = assay: Cytotoxicity against HEK293 cells assessed as reduction in cell viability measured after 48 hrs by MTT assay; format: cell-based; conditions: Homo sapiens, HEK293, 48 h
[10] = Toxicity in human MCF7 cells xenografted in BALB/c nude mouse assessed as morphological changes in heart at 8 to 12 umol/kg, ip administered every two days for two weeks measured post last dose by H and E staining based histological analysis; format: organism-based; conditions: in vivo, 336 h, dose 8-12 µmol/kg, time 2 weeks
[11] = Drug conversion in kidney of BALB/c nude mouse xenografted with human MCF7 cells assessed as T2-PTX formation at 8 to 12 umol/kg, ip measured after 2 hrs by LC-MS analysis; format: ADME, organism-based; conditions: in vivo, dose 8-12 µmol/kg
NCM460 = assay: Cytotoxicity against human NCM460 cells assessed as reduction in cell viability measured after 48 hrs by MTT assay; format: cell-based; conditions: NCM460, 48 h
HeLa = assay: Cytotoxicity against human HeLa cells assessed as reduction in cell viability measured after 48 hrs by MTT assay; format: functional, cell-based
[12] = target: 72 kDa type IV collagenase (Homo sapiens, UniProt P08253); assay: Drug metabolism in PBS buffer assessed as MMP2 (unknown origin)-mediated CPP-PTX formation at 0.5 uM measured after 2 hrs by LC-MS analysis; format: ADME
Sequence of 72 kDa type IV collagenase (P08253 whole entry): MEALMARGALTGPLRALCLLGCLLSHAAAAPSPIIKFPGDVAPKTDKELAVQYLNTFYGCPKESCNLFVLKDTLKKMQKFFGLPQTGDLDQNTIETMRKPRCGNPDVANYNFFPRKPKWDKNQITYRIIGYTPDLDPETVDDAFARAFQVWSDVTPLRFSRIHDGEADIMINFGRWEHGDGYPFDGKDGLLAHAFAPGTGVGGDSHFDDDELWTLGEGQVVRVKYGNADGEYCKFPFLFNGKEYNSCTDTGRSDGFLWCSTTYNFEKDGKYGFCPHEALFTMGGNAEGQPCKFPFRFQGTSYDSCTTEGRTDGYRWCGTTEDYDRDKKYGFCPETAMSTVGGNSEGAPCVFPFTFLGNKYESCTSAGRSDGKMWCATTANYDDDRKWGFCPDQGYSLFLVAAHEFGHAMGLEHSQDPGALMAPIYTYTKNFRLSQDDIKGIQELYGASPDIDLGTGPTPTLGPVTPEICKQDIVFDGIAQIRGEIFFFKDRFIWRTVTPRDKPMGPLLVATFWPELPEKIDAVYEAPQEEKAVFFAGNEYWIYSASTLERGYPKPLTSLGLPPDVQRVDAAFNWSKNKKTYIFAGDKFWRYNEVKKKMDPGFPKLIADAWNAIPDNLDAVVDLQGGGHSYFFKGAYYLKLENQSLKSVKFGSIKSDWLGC

[13] = Myelosuppression in BALB/c mouse assessed as change in granulocyte count at 12 umol/kg, ip administered every two days for 14 days measured post last dose; format: ADME, organism-based; conditions: in vivo, 336 h, dose 12 µmol/kg, time 14 day
[14] = Neurotoxicity in BALB/c mouse assessed as increase in pain sensitivity at 12 umol/kg, ip administered every two days for 14 days by hot water tail immersion test; format: toxicity, organism-based; conditions: in vivo, 336 h, dose 12 µmol/kg, time 14 day
MCF7 [15] = assay: Antimigratory activity against human MCF7 cells at 1.8 nM measured after 48 hrs by scratch wound-healing assay; format: functional, cell-based
[16] = Drug conversion in serum of BALB/c nude mouse xenografted with human MCF7 cells assessed as T2-PTX formation at 8 to 12 umol/kg, ip measured after 2 hrs by LC-MS analysis; format: ADME, organism-based; conditions: in vivo, dose 8-12 µmol/kg
[17] = Toxicity in human MCF7 cells xenografted in BALB/c nude mouse assessed as morphological changes in lung at 8 to 12 umol/kg, ip administered every two days for two weeks measured post last dose by H and E staining based histological analysis; format: organism-based; conditions: in vivo, 336 h, dose 8-12 µmol/kg, time 2 weeks
[18] = Toxicity in human MCF7 cells xenografted in BALB/c nude mouse assessed as change in body weight at 8 to 12 umol/kg, ip administered every two days for two weeks; format: organism-based; conditions: in vivo, 336 h, dose 8-12 µmol/kg, time 2 weeks
Erythrocyte = assay: Hemolytic activity against human erythrocytes up to 80 uM measured after 1 hr; format: ADME, cell-based
[19] = Drug conversion in serum of BALB/c nude mouse xenografted with human MCF7 cells assessed as PTX formation at 8 to 12 umol/kg, ip measured after 2 hrs by LC-MS analysis; format: ADME, organism-based; conditions: in vivo, dose 8-12 µmol/kg
[20] = Neurotoxicity in BALB/c mouse assessed as increase in pain sensitivity at 12 umol/kg, ip administered every two days for 14 days by cold water tail immersion test; format: toxicity, organism-based; conditions: in vivo, 336 h, dose 12 µmol/kg, time 14 day
[21] = Drug conversion in kidney of BALB/c nude mouse xenografted with human MCF7 cells assessed as PTX formation at 8 to 12 umol/kg, ip measured after 2 hrs by LC-MS analysis; format: ADME, organism-based; conditions: in vivo, dose 8-12 µmol/kg
MCF7 [22] = assay: Antitumor activity against human MCF7 cells xenografted in BALB/c nude mouse assessed as reduction in tumor weight at 8 umol/kg, ip administered every two days for two weeks relative to control; format: functional; design: scale not given: the % may be the effect or the level left; conditions: dose 8 µmol/kg; time 2 weeks
MCF7 [23] = assay: Cell cycle arrest in human MCF7 cells assessed as increase in accumulation at G2/M-phase at IC50 measured after 4 hrs by […] flow cytometry; format: functional
[24] = Drug uptake in human MCF7 cells at 20 nM measured after 4 hrs in presence of LHRH by LC-MS analysis; format: ADME, cell-based; conditions: mcf7, 4 h, 0.02 µM
[25] = Drug conversion in liver of BALB/c nude mouse xenografted with human MCF7 cells assessed as PTX formation at 8 to 12 umol/kg, ip measured after 2 hrs by LC-MS analysis; format: ADME, organism-based; conditions: in vivo, dose 8-12 µmol/kg

With CC(=O)O[C@H]1C(=O)[C@@]2(C)[C@H]([C@H](OC(=O)c3ccccc3)[C@]3(O)C[C@H](OC(=O)[C@H](OC(=O)OCCSSC[C@H](N)C(=O)N[C@@H](CC(C)C)C(=O)N[C@@H](CC(C)C)C(=O)N[C@@H](CCCCN)C(=O)N[C@@H](CCCNC(=N)N)C(=O)N[C@@H](Cc4ccccc4)C(=O)N[C@@H](Cc4ccccc4)C(=O)N[C@@H](CCCCN)C(=O)N[C@@H](CCCCN)C(=O)N[C@@H](Cc4ccccc4)C(=O)NCC(=O)N[C@@H](C)C(=O)N[C@@H](CC(C)C)C(=O)NCC(=O)N[C@@H](CC(C)C)C(=O)N4CCC[C@H]4C(=O)NCC(=O)N4CCC[C@H]4C(=O)N[C@@H](CCCNC(=N)N)C(=O)N[C@@H](CC(C)C)C(=O)NCC(=O)N[C@@H](Cc4ccc(O)cc4)C(=O)N[C@@H](CO)C(=O)N[C@@H](Cc4c[nH]c5ccccc45)C(=O)N[C@@H](CCCCN)C(=O)NC(=O)C4CCC(=O)N4)[C@@H](NC(=O)c4ccccc4)c4ccccc4)C(C)=C1C3(C)C)[C@]1(OC(C)=O)CO[C@@H]1C[C@@H]2O (some centres undefined) (H-C(X1)LLKRFFKKFGALGLPGPRLGYSW-X2) the IC50 (MCF7 [1]) was 3.8 nM, the Activity [2] was “Non-Toxic” and the Drug uptake [3] was “Active”. For the same compound, the Activity [4] was “Non-Toxic”, the Activity (MCF7 [5]) was “Active” and the Activity [6] was “Non-Toxic”. For the same compound, the Activity (MCF7 [7]) was “inactive”, the Drug metabolism [8] was “Metabolite_Notdetected” and the Activity [9] was “Non-Toxic”. The IC50 (HEK293) was 66 nM, the Activity [10] was “Non-Toxic” and the Drug metabolism [11] was “Metabolite_Notdetected”. The IC50 (NCM460) was greater than 80 nM, the IC50 (HeLa) was 20.3 nM and the Drug metabolism [12] was “Metabolite_Detected”. For the same compound, the Activity [13] was “Non-Toxic”, the Activity [14] was “Non-Toxic” and the Activity (MCF7 [15]) was “Active”. For the same compound, the Drug metabolism [16] was “Metabolite_Notdetected”, the Activity [17] was “Non-Toxic” and the Activity [18] was “Non-Toxic”. The Activity (Erythrocyte) was “Non-Toxic”, the Drug metabolism [19] was “Metabolite_Notdetected” and the Activity [20] was “Non-Toxic”. The Drug metabolism [21] was “Metabolite_Notdetected”, the Activity (MCF7 [22]) was 67.1% and the Activity (MCF7 [23]) was “Active”. The Drug uptake [24] was “Active” and the Drug metabolism [25] was “Metabolite_Notdetected”.
